A short description of assay [1]: Displacement of [3H]nicotine from nAChR in Sprague-Dawley Rattus norvegicus (rat) whole brain homogenates. The format is tissue-based. A general note: In a radioligand displacement assay an active substance lowers the binding of a labelled ligand.
Assay [2] in a line: Displacement of [3H]alpha-BGT from nAChR in Apis mellifera (honeybee) head.
Assay [3] concerns the target Acetylcholine receptor subunit alpha (Torpedo californica) (UniProt P02710). The experiment in a line: Displacement of [3H]alpha-BGT from nAChR in Torpedo nobiliana electric organs at 300 uM. The note with it: Electric organ.
For assay [4] the target is unchanged. Kind of assay: Increase in [3H]PCP binding to nAChR in Torpedo nobiliana electric organs in presence of carbachol. The note with it: Electric organ.
Assay [5] has the same target. Kind of assay: Increase in [3H]PCP binding to nAChR in Torpedo nobiliana electric organs. Conditions: Electric organ.
For the next assay, the species on record is Rattus norvegicus. The experiment in a line: Displacement of [3H]nicotine from nAChR in Sprague-Dawley Rattus norvegicus (rat) whole brain homogenates at 1000 uM. The format is tissue-based.
A further assay has as its system Apis mellifera. Kind of assay: Displacement of [3H]alpha-BGT from nAChR in Apis mellifera (honeybee) head at 1000 uM.
Assay [6] deals with Acetylcholine receptor subunit alpha (Torpedo californica) (UniProt P02710). The experiment in a line: Displacement of [3H]alpha-BGT from nAChR in Torpedo nobiliana electric organs at 1000 uM. Conditions: Electric organ.
Acetylcholine receptor subunit alpha (Torpedo californica), sequence (P02710 whole entry): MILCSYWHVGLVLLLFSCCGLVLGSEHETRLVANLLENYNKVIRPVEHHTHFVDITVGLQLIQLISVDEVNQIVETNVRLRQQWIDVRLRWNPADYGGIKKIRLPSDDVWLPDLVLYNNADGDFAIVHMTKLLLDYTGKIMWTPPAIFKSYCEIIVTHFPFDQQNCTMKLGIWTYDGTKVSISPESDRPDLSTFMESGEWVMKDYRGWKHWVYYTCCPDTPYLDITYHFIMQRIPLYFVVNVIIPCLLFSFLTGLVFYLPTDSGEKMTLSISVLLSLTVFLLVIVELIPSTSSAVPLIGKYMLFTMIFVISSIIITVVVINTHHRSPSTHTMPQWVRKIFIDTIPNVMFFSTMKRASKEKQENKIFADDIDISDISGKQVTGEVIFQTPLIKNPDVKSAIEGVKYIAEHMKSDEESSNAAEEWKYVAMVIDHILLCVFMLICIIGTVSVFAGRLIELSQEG
For assay [7] the target is unchanged. Kind of assay: Inhibition of [3H]PCP binding to nAChR in Torpedo nobiliana electric organs in presence of carbachol. Conditions: Electric organ.

The source made the active and inactive calls. The rule behind the calls is not given here. A value given as a limit tells only on which side of the number the result lay.

For the compound `c1cncc([C@@H]2CCCCN2)c1` [ANABASINE], the IC50 (usually the concentration at which inhibition is half-maximal) in [1] worked out at 0.285 µM; in [2], 1.98 µM.

With `C/C(=N\C#N)N(C)Cc1ccc(Cl)nc1` [ACETAMIPRID], the inhibition (as a rule, how much of the control response was suppressed) in assay [3] turned out to be 12.6%. This compound also showed a 50% inhibitory concentration (IC50) in assay [2] of 8.83 µM.

In the case of `CN(C)Cc1cccnc1`, the outcome in assay [4] was inactive. Further, the outcome in assay [5] was Active.

As to `CN1CCC[C@H]1c1cccnc1` [NICOTINE], the half-inhibitory concentration (IC50) stood at 0.0096 µM in assay [1] and 1.25 µM in assay [2]. For the same compound, in assay [4], the result was inactive. For the same compound, the outcome in assay [5] was Active.

Turning to `Cn1cccc1-c1cccnc1` [NICOTYRINE], the IC50 in [1] and in [2] was more than 1000 µM throughout. In addition, the inhibition in the assay filed under Rattus norvegicus amounted to 15.6%; in the assay on Apis mellifera, 1.5%; in [6], 2.55%.

For the compound `CN(C)Cc1ccccn1`, in [4], the outcome was inactive. Besides, the result in assay [5] was Active.

As for `CCN(Cc1ccc(Cl)nc1)/C(=C/[N+](=O)[O-])NC` [NITENPYRAM], the IC50 in assay [2] is 61.3 µM.

Regarding `CN(C)Cc1ccncc1`, the outcome in assay [4] was inactive. Moreover, the result in assay [5] was Active.

As to `O=[N+]([O-])C=C1NCCCS1`, the half-maximal inhibitory concentration (IC50) in assay [1] was 109 µM; in assay [2], 1360 µM.

Turning to `C[N+](C)(C)CCOC(N)=O` [CARBACHOL], the figures for the concentration for half-maximal inhibition (IC50) in assay [1] and in assay [2] were 0.647 µM and 90.2 µM, respectively.

Take `O=[N+]([O-])/N=C1\NCCN1Cc1ccc(Cl)nc1` [IMIDACLOPRID]: the IC50 in assay [1] was 0.984 µM; in assay [2], 1.95 µM. In assay [7], the inhibition result was “inactive”. Moreover, in [4], the result was inactive. This compound also had an Activity in [5] of 300%.

In assay [2], `C[N+](C)(C)C` [TRETRAMETHYLAMMONIUM IODIDE] displayed a half-maximal inhibitory concentration (IC50) of 542 µM. Also, the outcome in assay [4] was inactive. Besides, the result in [5] was Active.

The values are drawn from ChEMBL document CHEMBL3046825, “Molecular Mechanism for Selective Toxicity of Nicotinoids and Neonicotinoids” (J Pestic Sci, 1995).
